Assay results as given in patent US20120040916A1, “MOLECULAR INHIBITORS OF THE WNT/BETA-CATENIN PATHWAY” (MASSACHUSETTS INSTITUTE OF TECHNOLOGY, priority 2008, published 2012).

Key:
B16 melanoma cells = experiment: MTT proliferation assay of B16 melanoma cells; format: cell-based, murine
[1] = tested on: Wnt/β-catenin pathway (Axin2) in B16 cells; experiment: Quantitative PCR of Axin2 in B16 cells; format: cell-based, murine
Procedure: Cells were cultured for approximately 72 hours until they reached 80-90% confluency. RNA was purified using the RNeasy kit using the manufacturer's protocol (Qiagen; Maryland, MD). cDNA was synthesized using Superscript Reverse Transcriptase (Invitrogen; Grand Island, N.Y.). Light Cycler FastStart DNA Master SYBR Green1 (Roche; Mannheim, Germany) was used for real-time PCR as previously described (Major et al., Science 316:1043 (2007), which is hereby incorporated by reference in its entirety). Quantitative PCR results presented in the manuscript are representative of experiments performed on a minimum of three biologic replicates.

[2] = tested on: nuclear β-catenin in B16 cells; experiment: Immunofluorescent staining of β-catenin in B16 cells; format: cell-based, murine
Procedure: A polyclonal rabbit anti-β-catenin antibody was used for detection of β-catenin (1:1000 dilution for immunoblot, 1:200 dilution for immunohistochemistry). Cells were grown on 18 mm glass coverslips, for 48-72 hours, fixed using 4% paraformaldehyde, permeabilized using 0.25% Triton X-100, and then blocked with 10% goat serum. Goat anti-rabbit Alexa Fluor-568 antibody (Molecular Probes; Eugene, Oreg.) was diluted 1:1000. Cells were counterstained for nucleic acid with DAPI (Molecular Probes; Eugene, Oreg.). Paraffin-embedded nevus sections were stained using an antibody dilution of 1:200. Cellular lysates were obtained by lysing cells on plate with a 0.1% NP-40 based buffer and analyzed by NuPage 4-12% gradient gels (Invitrogen; Grand Island, N.Y.). The WNT5A antibody was obtained from Cell Signaling Technologies (Danvers, Mass.).

[3] = tested on: human melanoma cell lines; experiment: Proliferation of human melanoma cell lines (hematocytometer or MTT assay); format: cell-based; conditions: 10 mM lithium chloride, 3-7 days, FIG. 4D

SMILES	Proliferation by MTT assay (B16 melanoma cells; 1 μM BIO vs control cells, FIG. 5F)	Axin2 levels by quantitative PCR ([1]; 1 μM BIO vs control cells, FIG. 5D)	Nuclear β-catenin by immunofluorescent staining ([2]; 1 μM BIO vs DMSO, FIG. 5B)	Proliferation by MTT assay (B16 melanoma cells; 10 mM lithium chloride vs control cells, FIG. 5E)	Axin2 levels by quantitative PCR ([1]; 10 mM lithium chloride vs control cells, FIG. 5C)	Proliferation, normalized to growth in 10 mM sodium chloride [3]	Nuclear β-catenin by immunofluorescent staining ([2]; 10 mM lithium chloride vs 10 mM sodium chloride, FIG. 5A)
O=C1Nc2cc(Br)ccc2/C1=C1/Nc2ccccc2/C1=N\O [BIO]	decreased proliferation	increased Axing levels	increased nuclear β-catenin				
[Cl-].[Li+] [lithium chloride]				decreased proliferation	increased Axing levels	inhibited proliferation in all human melanoma cell lines tested	increased nuclear β-catenin
